Reference: US20070142326A1, “Treatment of a condition in a mammal with administration of aminosugar and uses thereof” (priority 2004, published 2007)
Entries after “also recorded” stand apart in the source; their conditions may differ.

Assays:
[1] = test system: synovial tissue of rabbits with ACL transection; assay: DNA content in synovial tissue, ACLT rabbits, intra-articular injections; assay type: in vivo, New Zealand White rabbits; details: FIG. 5
Procedure: (§1) Anterior cruciate ligament transection (ACLT). Unilateral or bilateral ACLT was performed as indicated for each set of experiments. ACLT was performed using a medial arthrotomy technique (Yoshioka et al. Osteoarthritis Cartilage 1996; 4:87-98). After dislocating the patella laterally, the ACL was transected with a sharp blade. Complete transection was confirmed by a manual anterior drawer test The knee joints were irrigated with sterile saline and closed in layers with sutures. All animals were maintained individually with ad libitum activity. The animals were sacrificed 8 weeks after the surgery.
Intra-articular injections of GlcNAc. Intra-articular injections of GlcNAc started one week post-operatively for a period of seven weeks. Rabbits were injected twice per week with GlcNAc in a volume of 0.3 ml per knee joint The single dose of GlcNAc per injection was 80 mg. Control animals were injected twice per week intra-articularly with normal saline (0.3 ml per joint). […]
Measurement of DNA content in synovial tissue. Synovial tissue cellularity was assessed by quantitating the tissue concentration of DNA (Amiel et. al. J Orthop Res 1986; 4:162-172). […] The aqueous phase containing the DNA was harvested, and the absorbance was measured at […]. […] Results were expressed as mg DNA per mg of dry tissue.

[2] = test system: rabbits with bilateral anterior cruciate ligament transection (ACLT); assay: Intra-muscular GlcNAc in rabbits with bilateral ACLT, gross morphological grading; assay type: in vivo, New Zealand White rabbits
Procedure: as §1
Intra-muscular injections of GlcNAc. Intra-muscular injections of GlcNAc were performed three times per week starting one week postoperatively for a period of seven weeks. The dose of GlcNAc was 200 mg/kg per injection. The control group of received the same number of intra-muscular injections of normal saline.
(§2) Gross morphological assessment of the knee joints. Gross morphological assessment of the knee joints included assessment of joint swelling, synovial effusion, macroscopic articular cartilage morphology of tibial plateaus and femoral condyles, and assessment of the menisci.
Gross morphological assessment of the articular cartilage. […] Subsequently, all joints were photographed and digital images were analyzed.

[3] = test system: femoral condyles and tibial plateaus of rabbits with ACL transection; assay: Gross morphological assessment and digital imaging of articular cartilage, ACLT rabbits, intra-articular injections; assay type: in vivo, New Zealand White rabbits; details: for Gross morphological analysis of the femoral condyles: FIG. 2
Procedure: as §1
(§3) Intra-articular injections of GlcNAc. Intra-articular injections of GlcNAc started one week post-operatively for a period of seven weeks. Rabbits were injected twice per week with GlcNAc in a volume of 0.3 ml per knee joint The single dose of GlcNAc per injection was 80 mg. Control animals were injected twice per week intra-articularly with normal saline (0.3 ml per joint). The third group of rabbits received intra-articular injections of hyaluronan (0.3 ml per joint) twice per week for seven weeks starting one week after the ACL transection. Synovial fluid analysis was performed in 3 animals that developed gross synovial effusions (2 animals in the control group and 1 animal in the hyaluronan group). In all three animals synovial fluid was culture negative.
Gross morphological assessment of the articular cartilage. The distal femur and proximal tibia were harvested keeping a 3.5 cm to 4 cm shaft of the bones. The articular cartilage surface of each specimen was covered with a solution consisting of India ink (Eberhard Faber, Lewisburg, Tenn.) in PBS (1:5 ratio). Excess ink solution was removed by gentle blotting with a tissue that was pre-moistened with PBS. Subsequently, all joints were photographed and digital images were analyzed.
Digital imaging. Articular surfaces of femoral condyles and tibial plateaus were gently blotted dry and cleaned of loose tissue. Each femoral shaft was clamped to an optical bench. An image (resolution: 60 pixels per mm; onscreen magnification: 20×) of the femoral condyles was obtained using a Canon EOS D30 digital camera with a 100 mm macro lens at a distance of approximately 12 cm. A millimeter scale was included in the photograph to accurately scale the image. The scaled image was then projected onto a 3D model of the femoral condyles. The 3D surface area of the lesion was measured by interactively plotting the margins of the lesion. A digital image of articular surface of the tibia was obtained as described above.

[4] = test system: subchondral bone marrow of rabbits with ACLT (experimental OA); assay: Histological grading of subchondral bone marrow, ACLT rabbits, intra-articular injections; assay type: in vivo, New Zealand White rabbits
Procedure: as §1, §3
(§4) Histological grading of the knee joints. Distal femur and proximal tibia from the rabbit knee joints were fixed in 10% buffered formalin, decalcified in TBD-2 decalcifier (ThermoShandon, Pittsburg, Calif.) and embedded in paraffin blocks. Sagittal sections of lateral and medial femoral condyles, and coronal sections of tibial plateaus were used for further histological analysis.
Microscopic assessment of bone marrow was based on the presence of subchondral bone marrow hypercellularity and increased vascularization as shown in Table 3.

[5] = test system: synovium of rabbits with ACLT (experimental OA); assay: Histological grading of synovium, ACLT rabbits, intra-articular injections; assay type: in vivo, New Zealand White rabbits
Procedure: as §1, §3, §4
Histological assessment of synovium was based on the presence of synovial proliferation and synovial neoangiogenesis, and it was performed separately for the synovium attached to the tibial plateaus, lateral, and medial femoral condyles.

[6] = Continuous delivery of GlcNAc to the joint (sustained release and alzet pump methods); details: after a single intra-articular administration
Procedure: Release of GlcNAc from formulations incubated in phosphate buffered saline. An in vitro release study was performed in phosphate buffered saline to evaluated release kinetics under physiological conditions. Each sustained release formulation (100 μl) was placed in 1.0 mL of phosphate buffered saline and then incubated at 37° C. At different time points, the formulation matrix was separated by removing the phosphate buffered saline bathing solution with a pipet. The resulting solutions were analyzed by UV detection after GlcNAc derivatives were formed by methods previously described (Reissig et. al. J. Biol. Chem. 1955 217: 959-966). The formulation matrix was then re-suspended in 1.0 mL phosphate buffered saline and incubated under the same conditions as described above.
Alzet Pump Administration of GlcNAc. New Zealand White rabbits, 3.0-3.5 kg, were used in this experiment. They were randomly allocated into five groups, each group having 8 rabbits. Group A was treated with saline (negative control group); Group B was treated with 1.5 M GlcNAc group; Group C was treated with 0.5 M GlcNAc group; Group D was treated with 0.15 M GlcNAc group; Group E was treated with 0.05 M GlcNAc group. All compounds were continuously delivered to the joints by Alzet mini pumps. The delivery rate for this pump was 2.5 μl/hour. […]

[7] = test system: human articular chondrocytes; details: cited from earlier work
[8] = test system: knee joints of rabbits with ACL transection; assay: Gross morphological assessment of joint swelling and synovial effusion, ACLT rabbits, intra-articular injections; assay type: in vivo, New Zealand White rabbits; details: FIG. 4
Procedure: as §1, §3, §2
The following grading system was used to assess joint swelling: Grade 0-normal; Grade 1 (mild swelling)—mild inflammation and/or proliferation of the joint capsule; Grade 2 (moderate swelling)—thickening of joint capsule and/or inflammation of the synovium; Grade 3 (severe swelling)—abundant inflammation of the synovium, swelling of the menisci or ligaments (anterior cruciate ligament or posterior cruciate ligament).

[9] = test system: articular cartilage of rabbits with ACLT (experimental OA); assay: Histological grading of articular cartilage, ACLT rabbits, intra-articular injections; assay type: in vivo, New Zealand White rabbits; details: N = 6; for Sulfated glycosaminoglycan loss, histological grade: grade 1-3 by loss of Safranin O staining, intra-articular 80 mg twice per week for 7 weeks; for Impairment of cartilage surface integrity, histological grade: grade 1 intact to 3 full thickness defect, intra-articular
Procedure: as §1, §3, §4
The assessment of sulfated glycosaminoglycan (SGAG) content was performed after staining of the tissue sections with Safranin O/Fast Green.
The following grading system was used for assessing SGAG content: Grade 1—Less than 25% loss of Safranin O staining, Grade 2—25-50% loss of Safranin O staining; Grade 3—More than 50% loss of Safranin O staining;
The following grading system was used for assessing cartilage integrity: Grade 1—Intact cartilage surface; Grade 2—Presence of fibrillations; Grade 3—Full thickness cartilage defect. In addition, all tissue samples were analyzed for the presence of chondrocyte proliferation or cloning.

chondrocytes = details: low millimolar concentrations; cited from earlier work

## CC(=O)N[C@H]1C(O)O[C@H](CO)[C@@H](O)[C@@H]1O (stereo partly drawn) [GlcNAc, N-Acetylglucosamine]
[1]; intra-articular GlcNAc versus hyaluronan group, p<0.05
  DNA content assessment of synovial tissue: significant reduction in synovial hyperplasia and cellularity
[1]; intra-articular, versus saline
  DNA content in synovial tissue: does not significantly affect
[2]; intra-muscular 200 mg/kg three times per week for seven weeks, 6 rabbits versus 6 saline controls, FIGS. 1a and 1b
  Degree of cartilage damage, gross morphological analysis of tibial plateaus and femoral condyles: did not reveal a statistically significant difference
[2]; intra-muscular GlcNAc
  Synovitis: trend towards reduction of synovitis; also recorded: significant reduction of synovitis
[3]; femoral condyles and tibial plateaus, intra-articular GlcNAc versus hyaluronan group, FIGS. 6a and 6b
  Surface areas of the cartilage lesions (digital image analysis): greatly reduced
[3]; intra-articular GlcNAc versus intra-articular hyaluronan group (n=7)
  Gross morphological analysis of the femoral condyles: no significant difference
[3]; intra-articular GlcNAc versus intra-articular hyaluronan, p<0.01, FIG. 3
  Chondroprotective activity, gross morphology of tibial plateaus: significantly greater
[3]; intra-articular, two times per week for seven weeks, n=7, versus saline control
  Gross morphological analysis of the femoral condyles: trend towards improved cartilage condition
[3]; intra-articular, two times per week for seven weeks, control group 6 of 7, p<0.003, FIG. 3
  Rabbits that developed a cartilage lesion on the tibial plateaus: 1 of 7
[4]; Lateral femoral condyle, N = 6, saline 3/7, P ≦ 0.07
  Subchondral bone marrow hypercellularity and increased vascularization, animals with finding / animals: 0/6
[4]; Medial femoral condyle, N = 6, saline 3/7, P ≦ 0.07
  Subchondral bone marrow hypercellularity and increased vascularization, animals with finding / animals: 0/6
[4]; Tibial plateau, N = 6, saline 3/7, P ≦ 0.35
  Subchondral bone marrow hypercellularity and increased vascularization, animals with finding / animals: 1/6
[5]; Lateral femoral condyle, N = 6, saline 4/7, P ≦ 0.16
  Synovial neoangiogenesis, animals with finding / animals: 1/6
[5]; Lateral femoral condyle, N = 6, saline 7/7, P ≦ 0.006
  Synovial thickening/proliferation, animals with finding / animals: 2/6
[5]; Medial femoral condyle, N = 6, saline 5/7, P ≦ 0.05
  Synovial neoangiogenesis, animals with finding / animals: 1/6
[5]; Medial femoral condyle, N = 6, saline 7/7, P ≦ 0.006
  Synovial thickening/proliferation, animals with finding / animals: 2/6
[5]; Tibial plateau, N = 6, saline 4/7, P ≦ 0.16
  Synovial neoangiogenesis, animals with finding / animals: 1/6
[5]; Tibial plateau, N = 6, saline 7/7, P ≦ 0.0002
  Synovial thickening/proliferation, animals with finding / animals: 1/6
[6]
  Duration of continuous delivery to the joint: more than three weeks
[7]
  Concentration that does not induce chondrocyte cell death: higher than 50 mM
[8]; intra-articular GlcNAc versus hyaluronan group
  Synovial effusion: no significant difference
[8]; intra-articular, versus saline
  Joint swelling: does not significantly affect
  Synovial effusions: does not significantly affect
[9]; Lateral femoral condyle, saline 2.43 ± 0.53, P ≦ 0.03
  Sulfated glycosaminoglycan loss, histological grade: 1.50 ± 0.83
[9]; Lateral femoral condyle, saline 2.00 ± 1.00, P ≦ 0.17
  Impairment of cartilage surface integrity, histological grade: 1.33 ± 0.51
[9]; Medial femoral condyle, saline 1.57 ± 0.53, P ≦ 0.4
  Sulfated glycosaminoglycan loss, histological grade: 1.66 ± .33
[9]; Medial femoral condyle, saline 1.66 ± 0.41, P ≦ 0.91
  Impairment of cartilage surface integrity, histological grade: 1.66 ± 0.81
[9]; Tibial plateau, saline 1.71 ± 0.76, P ≦ 0.14
  Sulfated glycosaminoglycan loss, histological grade: 1.16 ± 0.40
[9]; Tibial plateau, saline 1.71 ± 0.49, P ≦ 0.05
  Impairment of cartilage surface integrity, histological grade: 1.16 ± 0.41

## N[C@H]1C(O)O[C@H](CO)[C@@H](O)[C@@H]1O (stereo partly drawn) [GlcN, glucosamine]
chondrocytes
  Cytotoxicity for chondrocytes: cytotoxic for chondrocytes at low millimolar concentrations
